Consider three molecules from paper PMC9221546, “New Phenylglycinamide Derivatives with Hybrid Structure as Candidates for New Broad-Spectrum Anticonvulsants” (Cells, 2022).

Molecules are shown by their SMILES. Where two headings read alike, the source gives them in different places.

The nature of data set [1]: PAMPA permeability (Pre-coated PAMPA Plate System Gentest). The data set is classed as in vitro ADME. (In PAMPA a lipid-coated filter parts donor from acceptor wells.)
Description: Caffeine (CFN) and norfloxacin (NFX) were used as the high- and low-permeable references, respectively.
For data set [2], the system named is 6 Hz (32 mA) seizures in mice. The data set can be described thus: 6 Hz (32 mA) psychomotor seizure model. The data set is classed as in vivo. To be noted: Mus musculus, ip; for responders at 100 mg/kg: 100 mg/kg i.p., 0.5 h; for ED50: mice, pretreatment time 0.5 h, (95% confidence limits). The procedure: (§1) Adult male Albino Swiss mice that weighed between 22 and 26 g were used in the in vivo studies. They were housed under standardized housing conditions in colony cages and had free access to food as well as tap water. The animals were left to adapt under laboratory conditions for 7 days. All procedures involving animals and their care were performed in accordance with the current European Community and Polish legislation on animal experimentation.
(§2) In the initial screening studies, four mice per group were randomly assigned to each experimental group (each mouse was used only once). To evaluate the ED50 or TD50 values, 3–4 groups that consisted of eight animals were injected with various doses of tested compounds. The protective indexes (PIs) for the compounds that were investigated and reference ASDs were calculated by dividing the TD50 value, as determined in the chimney test (or rotarod test), by the respective ED50 value, as determined in the MES, scPTZ, or 6 Hz (32 mA or 44 mA) tests (PI = TD50/ED50). The PIs is a measure of the potential therapeutic window of the tested agent.
(§3) All substances were suspended in Tween 80 (1% aqueous solution) and administered i.p. as a single injection at a dose of 10 mL/kg. On each day of experimentation, fresh solutions were prepared. The results are summarized in Table S1 (screening data) and Table 2 (ED50, TD50, and PI values, see Section 3 Results and Discussion).
(§4) The detailed in vivo procedures are described elsewhere: the maximal electroshock seizure test (MES), the subcutaneous pentylenetetrazole seizure test (scPTZ), the 6 Hz psychomotor seizure model (32 mA and 44 mA), and the chimney test.
(§5) The basic animal seizure models such as the MES, 6 Hz (32 mA or 44 mA), and the scPTZ are still a standard in the discovery and development of new ASDs. In vivo screening approaches enable the identification of compounds with unidentified and potentially novel mechanisms of action besides substances with well-established pharmacodynamics. Bearing in mind the aforementioned facts, compounds 45–66 were initially studied in the MES test and in the 6 Hz seizure model (32 mA) after intraperitoneal (i.p.) administration at a screening dose of 100 mg/kg in mice at a time point of 0.5 h (the screening group consisted of four mice, the results obtained are summarized in Table S1). It should be stressed that the MES test is an experimental model of human tonic–clonic epilepsy as well as partial convulsions with or without secondary generalization, the 6 Hz model (32 mA) corresponds to human focal epilepsy, whereas the scPTZ test relates to human generalized absence or myoclonic seizures.
(§6) We also established the median toxic doses (TD50) in the chimney test 0.5 h post i.p. administration of these compounds. Both the aforementioned parameters enabled the calculation of the protective indexes (PIs).

In the next data set the target is T1, TRPV1 (VR1) (h) (Homo sapiens, UniProt Q8NER1).
T1 construct: host or cells: CHO
The data set can be described thus: TRPV1 (VR1) (h) antagonist effect functional assay. To be noted: human recombinant CHO cells, read-out: % Inhibition of control agonist response, TRPV1 (antagonist effect). It is filed as cell-based. The procedure:
Binding/functional studies were carried out commercially in Eurofins Laboratories (Poitiers, France) and Eurofins Panlabs Discovery Services Taiwan, Ltd. (New Taipei City, Taiwan) using testing procedures that were reported previously (for details see Table S2).
Table S2. Radioligand binding and functional assays. […]
Assays were performed commercially in Eurofins Laboratories (Poitiers, France) or Eurofins Panlabs Discovery Services Taiwan, Ltd. (New Taipei City, Taiwan).
Table S3. In vitro TRPV1 channel antagonist activity for compounds 45–66 (concentration of 100 µM). […]
Cmpd % Inhibition of control Cmpd % Inhibition of control agonist responsea agonist responsea
*Source: human recombinant CHO cells. a Results showing activity higher than 50% are considered to represent […]
variability of the sign al around the control level. Assays were performed commercially in Eurofins Laboratories

Data set [3] deals with MES-induced seizures in mice. The data set can be described thus: Maximal electroshock seizure (MES) test. To be noted: for responders at 100 mg/kg / ED50: Mus musculus, ip; for responders at 100 mg/kg: read-out: MES screening: number of mice protected/number of mice tested (converted); for ED50: mice, pretreatment time 0.5 h, (95% confidence limits). The data set is classed as in vivo. The procedure:
as §1, §2, §3, §4, §5, §6

Data set [4] in a line: Chimney test (acute neurological deficit). To be noted: mouse, in vivo, ip, mice. The procedure:
as §2, §3, §4
We also established the median toxic doses (TD50) in the chimney test 0.5 h post i.p. administration of these compounds. […]

The subject of data set [5] is scPTZ-induced seizures in mice. Put plainly: Subcutaneous pentylenetetrazole (scPTZ) seizure test. The data set is classed as in vivo. To be noted: 100 mg/kg i.p., 0.5 h. On the procedure:
as §1, §2, §3, §4, §5

The mark [6] stands for this setting: four mice, read-out: protection in 6 Hz (32 mA) screening.
Where [7] appears, read: read-out: 6 Hz (32 mA) screening: number of mice protected/number of mice tested (converted).

T1 sequence (Q8NER1 whole entry): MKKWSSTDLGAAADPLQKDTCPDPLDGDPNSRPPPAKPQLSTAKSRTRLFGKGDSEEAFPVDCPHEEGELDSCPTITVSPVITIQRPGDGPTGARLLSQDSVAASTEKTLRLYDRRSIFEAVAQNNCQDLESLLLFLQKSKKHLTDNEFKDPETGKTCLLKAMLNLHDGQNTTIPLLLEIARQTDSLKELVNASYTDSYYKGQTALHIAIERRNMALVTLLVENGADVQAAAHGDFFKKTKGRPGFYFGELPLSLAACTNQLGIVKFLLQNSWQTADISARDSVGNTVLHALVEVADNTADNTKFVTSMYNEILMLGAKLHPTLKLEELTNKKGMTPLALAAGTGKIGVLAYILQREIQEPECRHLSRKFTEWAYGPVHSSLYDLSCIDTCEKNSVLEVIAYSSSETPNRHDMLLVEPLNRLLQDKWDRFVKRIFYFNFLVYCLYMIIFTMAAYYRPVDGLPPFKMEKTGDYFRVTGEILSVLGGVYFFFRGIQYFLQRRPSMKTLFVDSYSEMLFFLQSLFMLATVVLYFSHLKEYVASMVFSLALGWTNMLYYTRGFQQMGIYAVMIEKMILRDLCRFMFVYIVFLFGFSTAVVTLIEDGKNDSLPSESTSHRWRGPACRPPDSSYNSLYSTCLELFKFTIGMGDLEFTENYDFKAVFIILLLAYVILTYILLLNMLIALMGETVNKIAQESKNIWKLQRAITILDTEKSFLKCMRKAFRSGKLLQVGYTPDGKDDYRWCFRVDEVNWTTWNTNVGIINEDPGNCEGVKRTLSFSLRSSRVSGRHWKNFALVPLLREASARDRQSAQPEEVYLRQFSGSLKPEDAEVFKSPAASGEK

With `Cn1c(=O)c2c(ncn2C)n(C)c1=O` [CFN, Caffeine, reference compound], the “Pe (permeability coefficient) ± SD” value in data set [1] is 12.22 ± 0.94 10^−6 cm/s.

By ED50 is commonly meant the midpoint of the dose-response relation. The inhibition is the change of the read-out against control, counted positive when it falls. As a reminder, the melting point is the temperature, or range, at which the solid turns liquid. In turn, `CC(=O)NC(C(=O)N1CCN(c2cccc(Cl)c2)CC1)c1ccccc1` (stereo not drawn) [Compound 47, N-(2-(4-(3-chlorophenyl)piperazin-1-yl)-2-oxo-1-phenylethyl)acetamide] came in with a melting point of 145.5 to 146.7 °C. Also, in data set [2] (setting [6]), the responders at 100 mg/kg was 75%. Moreover, in data set [2] (setting [7]), the responders at 100 mg/kg was 75%. The ED50 in data set [2] stood at 88.4 mg/kg. The inhibition at 100 µM at TRPV1 (VR1) (h) came to 125%. Moreover, in data set [3] (100 mg/kg i.p., 0.5 h), the responders at 100 mg/kg is 0%. The ED50 in data set [3] was more than 150 mg/kg. Moreover, the TD50 at 0.5 h in data set [4] is more than 500 mg/kg.

Consider `CC(=O)NC(C(=O)N1CCN(c2ccccc2)CC1)c1ccccc1` (stereo not drawn) [Compound 45, N-(2-oxo-1-phenyl-2-(4-phenylpiperazin-1-yl)ethyl)acetamide], for which the responders at 100 mg/kg in data set [2] (setting [6]) was 75%; in data set [2] (setting [7]), 75%; in data set [3] (100 mg/kg i.p., 0.5 h) it was 75%. Also, the ED50 in data set [2] came to 81.6 mg/kg; in data set [3] it was 125 mg/kg. Besides, the inhibition at 100 µM at TRPV1 (VR1) (h) was determined as 36.1%. In addition, the “protection in MES screening” value in data set [3] (100 mg/kg i.p., 0.5 h, four mice) is listed as 75%. In data set [4], this molecule came in with a TD50 at 0.5 h of 268 mg/kg. In addition, in data set [5], the “scPTZ screening: number of mice protected/number of mice tested” value is recorded as 0/4.
